Measured values as given in ChEMBL document CHEMBL3430912, “GSK Tres Cantos Anti-Kinetoplastid Screening (TCAKS) Data”.

Legend:
[1] = test system: Leishmania donovani; assay: GSK_TCAKS: pIC50 Leishmania donovani Imaging: THP-1 Host Macrophages. Assay plates (384-well) were prepared by adding 250nL of compound to each well. For single shot assay, the final compound concentration was 5 uM. […] Automated image analysis was performed with a script developed on Acapella High Content Imaging and Analysis Software (PerkinElmer). Output: THP-1 cell count were reported for each well.; type: functional, organism-based, Homo sapiens
[2] = test system: Leishmania donovani; assay: GSK_TCAKS: pIC50 Leishmania donovani viability assay using fluorescence intensity. Assay plates (1536-well) were prepared by adding 30nL per well of compound. For single shot assay, the final compound concentration was 5uM. […] Briefly, eGFP LdBOB axenic amastigotes were harvested, fixed and counted in a CASY cell counter (Roche-Applied Science). A final concentration of 1.5 * 10^5 cells per well were prepared in amastigote media containing 500 U/mL penicillin/streptomycin (Invitrogen) and 6uL was dispensed to each experimental well using a Multidrop Combi dispenser (Thermo Scientific). 6uL of assay media was dispensed to control columns used as reference for 100% compound response. Following incubation for 72 h at 37C, 5% CO2, 2 uL of resazurin was added to each well at a final concentration of 0.5 mM in phosphate buffered saline (PBS) with IGEPAL (Sigma-Aldrich), 0.05% (v/v).; type: functional, organism-based
[3] = biological target: Sterol 14-alpha demethylase (Trypanosoma cruzi (strain CL Brener), UniProt Q7Z1V1); assay: GSK_TCAKS: pIC50 CYP51 from Trypanosoma cruzi.; type: functional
[4] = test system: Trypanosoma cruzi; assay: (§1) GSK_TCAKS: pIC50 Trypanosoma cruzi Imaging: Amastigotes/Cell. […] Cells were then washed once with PBS before infection. T. cruzi trypomastigotes, collected at days 5 to 8 after infection from LLC-MK2 parasite infected cultures, were allowed to swim out for 4h at 37C from a centrifuged pellet (2,500 rpm/10 min/room temperature). Trypomastigotes were then collected and counted in a CASY Cell Counter. Trypomastigotes, in supplemented DMEM, were added to H9c2 cultures in a multiplicity of infection of 1 and incubated for 18 h. Cells were washed once with PBS before incubation of the infected H9c2 monolayer with trypsin (Life-Technologies) to detach cells from the flask. Cells were counted in a CASY Cell Counter using a 150 um capillary and their density set at 5 * 10^4 cells per mL in supplemented assay DMEM. Infected H9c2 were dispensed into 384-well poly-lysine coated assay plates at 50uL per well using a Multidrop Combi dispenser. After seeding them, the plates were incubated at 37C, 5% CO2 for 72h. Cultures were then fixed and stained by addition of 50 uL of a solution containing 8% formaldehyde and 4 uM DRAQ5 DNA dye (BioStatus, UK) per well. […] Five images were collected per well for reliable statistical analysis. Automated image analysis was performed with a script developed on Acapella High Content Imaging and Analysis Software (PerkinElmer). Output: number of amastigotes per cell as infection level measurement.; type: functional, organism-based, Rattus norvegicus; conditions: H9c2, 4 h
[5] = test system: Trypanosoma cruzi; assay: as §1, with “H2C9” for “Trypanosoma cruzi”, “H9c2 Host Cardiomyocytes.” for “Amastigotes/Cell.”, “Number” for “number”, “H9c2 Host Cardiomyocytes nuclei to determine drug-related cytotoxicity.” for “amastigotes per cell as infection level measurement.”; type: functional, organism-based, Rattus norvegicus; conditions: H9c2, 4 h
[6] = test system: NIH3T3; assay: GSK_TCAKS: pIC50 NIH 3T3 cell line viability assay using luminiscence. Tissue culture surface treated assay plates (1536-well) were used. […] The 100% cells survival control was determined exposing the host-cells to a 0.5% DMSO concentration, whereas the 100% toxicity control was achieved by seeding the cells in presence of Amphotericin B at 50uM. Plates were incubated for four days at 37C, 5% CO2. The assay readout was developed by addition of 5uL of CellTiter-Glo Reagent following the manufacturer's instructions. Luminiscence was measured using a ViewLux.; type: functional, cell-based; conditions: Mus musculus, NIH3T3, 96 h
[7] = test system: Trypanosoma brucei brucei; assay: GSK_TCAKS: pIC50 Trypanosoma brucei viability assay using luminiscence. Assay plates (1536-well) were prepared. T. brucei cultures were harvested and counted in a CASY cell counter. A parasite suspension was prepared at a final concentration of 5 * 10^4 cells/mL in complete HMI9 medium and 6uL was dispensed to all wells containing compounds using a Multidrop Combi dispenser. 6uL of HMI9 media with 0.4% DMSO were dispensed to control columns. Plates were incubated for 24 h at 37C, 5% CO2 then tempered for 10 min at room temperature. ATP content was quantified by adding 4 uL of CellTiter-Glo Reagent (Promega) according to the manufacturer's instructions. Luminescence was measured using a ViewLux.; type: functional, organism-based; conditions: Lister 427, CASY
[8] = test system: Leishmania donovani; assay: GSK_TCAKS: pIC50 Leishmania donovani Imaging: Infected Macrophages. Assay plates (384-well) were prepared by adding 250nL of compound to each well. For single shot assay, the final compound concentration was 5 uM. […] Automated image analysis was performed with a script developed on Acapella High Content Imaging and Analysis Software (PerkinElmer). Output: Percent of infected macrophage cells were reported for each well.; type: functional, organism-based, Homo sapiens; conditions: THP-1
[9] = GSK_TCAKS: pIC50 HepG2 human cell line viability assay using luminiscence. […] Seeding density was checked to ensure that new mono-layers were not more than 50% confluent at the time of harvesting. Cell suspension was added to 500 mL of the same medium at a final density of 1.2 * 10^5 cells/mL. This cell suspension was dispensed (25 uL, 3000 cells per well) into 384-well clear-bottom plates using a Multidrop Combi dispenser. Prior to addition of the cell suspension, the screening compounds (250 nL) were pre-dispensed into the plates with an Echo liquid handler. Plates were incubated for 48 h at 37C, 5% CO2. After incubation, plates equilibrated at room temperature for 30 min before proceeding to develop the luminescent signal. The signal developer, CellTiter-Glo Reagent, was allowed to equilibrate at room temperature for 30 min and added to the plates (25uL per well) using a Multidrop Combi dispenser. Plates were left for 10 min at room temperature for stabilization and then read using a ViewLux.; type: toxicity, cell-based
[10] = test system: Trypanosoma brucei brucei; assay: GSK_TCAKS: pIC50 Trypanosoma brucei viability assay using fluorescence intensity. Assay plates (1536-well) were prepared by dispensing 25nL of compound solution per well using an Echo acoustic dispenser (Labcyte).; type: functional, organism-based; conditions: Lister 427, 2 h
[11] = test system: Trypanosoma cruzi; assay: GSK_TCAKS: pIC50 Trypanosoma cruzi viability assay using beta-GAL activity. This assay was run at single shot at 5uM compound concentration per well. The biological reagents consisted of NIH-3T3 host cells and trypomastigotes parasitic cells; both cell types were set to a 3.3 * 10^5 cells/mL dilution in assay DMEM by means of a CASY cell counter device using a 60um capillary. 6 uL of the mixture were dispensed per well (about 1 * 10^3 host-cells and 1 * 10^3 parasites) with a Multidrop Combi dispenser. […] In all wells, the percentage of DMSO never exceeded 0.5%. Plates incubated for four days at 37C, 5% CO2. The substrate used for the assay fluorescence intensity (FLINT) readout was resorufin-beta-D-galactopiranoside (Sigma-Aldrich) at 5uM per well. It was diluted in PBS supplemented with the soft detergent Igepal (Fluka).; type: functional, organism-based, Mus musculus; conditions: Tulahuen, NIH3T3
[12] = test system: Leishmania donovani; assay: GSK_TCAKS: pIC50 Leishmania donovani Imaging: Amastigotes/Macrophages. Assay plates (384-well) were prepared by adding 250nL of compound to each well. For single shot assay, the final compound concentration was 5 uM. […] Automated image analysis was performed with a script developed on Acapella High Content Imaging and Analysis Software (PerkinElmer). Output: Average number of amastigotes per macrophage cell were reported for each well.; type: functional, organism-based, Homo sapiens; conditions: THP-1
[13] = test system: Trypanosoma cruzi; assay: GSK_TCAKS: pIC50 Trypanosoma cruzi Imaging: Infected Cells. […] Cells were then washed once with PBS before infection. T. cruzi trypomastigotes, collected at days 5 to 8 after infection from LLC-MK2 parasite infected cultures, were allowed to swim out for 4h at 37C from a centrifuged pellet (2,500 rpm/10 min/room temperature). Trypomastigotes were then collected and counted in a CASY Cell Counter. Trypomastigotes, in supplemented DMEM, were added to H9c2 cultures in a multiplicity of infection of 1 and incubated for 18 h. Cells were washed once with PBS before incubation of the infected H9c2 monolayer with trypsin (Life-Technologies) to detach cells from the flask. Cells were counted in a CASY Cell Counter using a 150 um capillary and their density set at 5 * 10^4 cells per mL in supplemented assay DMEM. Infected H9c2 were dispensed into 384-well poly-lysine coated assay plates at 50uL per well using a Multidrop Combi dispenser. After seeding them, the plates were incubated at 37C, 5% CO2 for 72h. Cultures were then fixed and stained by addition of 50 uL of a solution containing 8% formaldehyde and 4 uM DRAQ5 DNA dye (BioStatus, UK) per well. […] Five images were collected per well for reliable statistical analysis. Automated image analysis was performed with a script developed on Acapella High Content Imaging and Analysis Software (PerkinElmer). Output: percentage of infected cells per well as a second infection marker.; type: functional, organism-based, Rattus norvegicus; conditions: H9c2, 4 h

Chain of Sterol 14-alpha demethylase (Q7Z1V1 whole entry): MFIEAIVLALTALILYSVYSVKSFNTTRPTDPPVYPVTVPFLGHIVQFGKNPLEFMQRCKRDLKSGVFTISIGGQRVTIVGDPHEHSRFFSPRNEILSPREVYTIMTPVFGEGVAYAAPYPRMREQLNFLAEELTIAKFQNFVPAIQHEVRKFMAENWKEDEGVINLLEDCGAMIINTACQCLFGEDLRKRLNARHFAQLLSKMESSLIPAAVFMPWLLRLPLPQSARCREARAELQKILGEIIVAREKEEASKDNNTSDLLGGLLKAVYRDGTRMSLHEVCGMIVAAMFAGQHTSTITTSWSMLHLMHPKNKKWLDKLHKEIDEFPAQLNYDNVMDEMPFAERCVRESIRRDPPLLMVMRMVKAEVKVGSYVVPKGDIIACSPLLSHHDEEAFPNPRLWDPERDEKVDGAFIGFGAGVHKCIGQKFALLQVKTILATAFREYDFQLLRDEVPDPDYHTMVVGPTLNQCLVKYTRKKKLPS

Row | SMILES | IC50 [1] [µM] | IC50 [2] [µM] | IC50 [3] [µM] | IC50 [4] [µM] | IC50 [5] [µM] | IC50 [6] [µM] | IC50 [7] [µM] | IC50 [8] [µM] | IC50 at 48 h [9] [µM] | IC50 [10] [µM] | IC50 [11] [µM] | IC50 [12] [µM] | IC50 [13] [µM]
1 | COc1ccc(C)cc1-c1csc(NC(=O)C(C)n2ccnc2)n1 (stereo not given) | > 50.1 | 3.16 | 0.0398 | 0.1 | > 50.1 | 50.1 | > 39.8 | > 50.1 | > 100 | 25.1 | 0.0708 | > 50.1 | 0.1
2 | COc1ccc(S(=O)(=O)NC(C)C)cc1Nc1ncc(-c2cccc(F)c2)cn1 | > 50.1 | 6.31 | > 100 | 0.316 | > 50.1 | 5.01 | > 39.8 | > 50.1 | > 100 | 20 | 0.631 | > 50.1 | 0.398
3 | C=CCn1nc([N+](=O)[O-])nc1Oc1ccc(Cl)cc1Cl | 39.8 | > 50.1 | 20 | 0.126 | > 50.1 | 50.1 | > 39.8 | > 50.1 | > 100 | 20 | 0.251 | 39.8 | 0.251
4 | COc1ccc2nc(N(Cc3cccnc3)C(=O)C3CCC3)sc2c1 | > 50.1 | 12.6 | 0.0631 | 0.1 | > 50.1 | 50.1 | 39.8 | > 50.1 | > 100 | 20 | 0.126 | 50.1 | 0.126
5 | O=[N+]([O-])c1ccc(C2=NCCNC(c3ccccc3)=C2)cc1.[O-][Cl+3]([O-])([O-])O | 39.8 | > 50.1 | 50.1 | 0.251 | 31.6 | 7.94 | > 12.6 | 20 | 50.1 | 6.31 | 0.501 | 7.94 | 1
6 | Cc1c(C(C)NC(=O)Nc2cccc(Cl)c2)sc2ncnn12 (stereo not given) | > 50.1 | 2 | 0.126 | 0.158 | > 50.1 | > 50.1 | > 39.8 | > 50.1 | > 100 | 20 | 0.141 | 2 | 0.2
7 | CC(Cn1ccnc1)NC(=O)COc1ccc(Cl)c(Cl)c1 (stereo not given) | > 50.1 | > 50.1 | 0.0631 | 0.398 | > 50.1 | > 50.1 | > 39.8 | > 50.1 | > 100 | > 39.8 | 0.224 | > 50.1 | 0.501
8 | Fc1ccc(O[C@H]2C[C@H](NCc3cccc4cn[nH]c34)C2)cc1C(F)(F)F | 10 | 20 | 0.126 | 0.158 | 7.94 | 12.6 | 10 | 7.94 | 25.1 | 7.94 | 0.794 | 7.94 | 0.2
9 | Cc1ccc(C)c(OC2CCN(C(=O)C(C)n3ccnc3)CC2)c1 (stereo not given) | > 50.1 | 2.51 | 0.1 | 0.316 | > 50.1 | > 50.1 | > 39.8 | > 50.1 | > 100 | > 39.8 | 0.178 | 0.316 | 0.398
10 | Cc1nc(N2CCC(C(=O)N3CCC(O)(c4cccnc4)CC3)CC2)nc2ccc(C(C)C)cc12 | 25.1 | > 50.1 | 0.126 | 0.398 | 39.8 | 25.1 | 31.6 | 50.1 | 79.4 | 20 | 1.58 | 10 | 0.316
